Measurements as given in patent US20070244076A1, “Site and Rate Selective Prodrug Formulations of D609 with Antioxidant and Anticancer Activity” (priority 2003, published 2007).
Values joined by “and” are separate entries in the source; they are usually repeats but may differ in a detail not shown here. Equal values may be shown once.

Key:
U937 cells = test: MTT cell viability, U937 cells; type: cell-based, Human; conditions: for LD50: 48 h
Method: Cell viability assay: The MTT assay was used to quantify viable U937 cells (Hansen et al., 1989). U937 cells were harvested, washed and resuspended in complete medium at a concentration of 5×10^5 cells per ml. Aliquots (100 μl) of the cell suspension were added to wells of a 96-well microtiter plate with the addition of 100 μl of complete medium (control) or various concentrations of D609 or a D609 prodrug (diluted in complete medium). After 48 h incubation, the plates were centrifuged to remove the supernatants from the culture, and 50 μl of MTT at a concentration of 5 mg/ml in phosphate-buffered saline (PBS) was added to each well. The plates were incubated for 4 h at 37° C. to allow for the formation of a colored formazan. The formazan was solubilized by lysing the cells with 100 μl of lysis buffer containing 20 (w/v) % dodecylsulfate and 50 (v/v) % N,N-dimethyl formamide, pH 4.7. Absorbance of the formazan was measured at 595 nm using a Vmax plate reader (Molecular Devices, Sunnyvale, Calif.). The viability of the cells was expressed as a percent of control calculated by the formula Ad/Ac×100, where Ad and Ac, represent the absorbance of drug-treated and untreated control cells, respectively, and expressed as a percentage of control.
In this study, p-nitrophenyl-phosphorylcholine (pNPP, 40 mM) was incubated with 2 U/ml phospholipase C (Type XI from B. cereus) in the presence or absence of various concentrations of inhibitors for 2 hrs at 37° C. The amount of the cleaved substrate pNPP was quantified by determination of the optical density at 410 nm using an ELISA reader. The results are expressed as percent of vehicle control and presented as means±SEM (n=3) (FIG. 9A). NBD-C6-ceramide and PC were incubated with U937 cell lysates containing 50 μg protein in the presence or absence of various concentrations of inhibitors for 30 min at 30° C. The formation of NBD-C6-sphingomyelin as analyzed by TLC and quantified by determination of the fluorescent intensity of NBD-C6-sphingomyelin using a phosphorimager. The results are expressed as percent of vehicle control (FIG. 9B). […]

[1] = system: Porcine liver esterase (PLE); test: Esterase-catalyzed hydrolysis of D609 prodrugs; type: in vitro ADME
Method: FIG. 18A, FIG. 18B, FIG. 18C: Esterase-catalyzed hydrolysis of D609 prodrugs. Prodrugs (300 μM in 15% DMSO/PBS, pH 7.4), 1 (FIG. 18A), 2 (FIG. 18B) and 3 (FIG. 18C), were incubated at 37° C. in the presence of 0.1 unit/ml PLE. […] The data are presented as the mean±SEM of three independent assays.
To determine the hydrolytic property of D609 prodrugs 1, 2, and 3 (300 μM in 15% DMSO/PBS, pH7.4), these prodrugs were incubated with 0.1 unit/ml PLE at 37° C. After various times during incubation, the rate of hydrolysis of these D609 prodrugs was monitored by HPLC analysis. […] The concentration of D609 (μM) was calculated based on a linear D609-DTNB standard curve. The pseudo-first-order plots for the hydrolysis of these prodrugs were constructed from the logarithm of remaining ester versus time (FIG. 18). The end points of the reaction (150 min) were defined as when the hydrolysis of these prodrugs was over 99% complete and the release of D609 reached plateau. The pseudo-first-order rate constant (Kobs) and T1/2 (=0.693/Kobs) were calculated based on the slope of the linear portion of the curve for each of these prodrugs and are presented in Table 1 (Gilmer et al., 2002).

[2] = rat, plasma
Method: At various times of the incubation, the hydrolysis of prodrug 2 was monitored by HPLC analysis, and the release of D609 was determined by measuring the colorimetric reaction of D609 with DTNB (3 mM). The data are presented as mean±SE of three independent assays.
After incubation at 37° C., aliquots (100 μl) of the plasma were removed at various times and immediately mixed with an equal volume of DTNB in acetonitrile (3 mM DTNB). Acetonitrile was used to quickly inactivate plasma esterases and to precipitate plasma proteins. After removal of the precipitated plasma proteins by centrifugation, the concentrations of the D609 prodrug and D609 in the clear plasma supernatants were determined by HPLC and DTNB assays, respectively, as described above.

[3] = Cyclic voltammetry, reducing power (E1/2) at physiological pH; type: physicochemical; conditions: 2 mM in PBS (pH 7.4)
Method: D609 was dissolved in PBS (pH 7.4) at 2 mM concentration, and E1/2 was measured using a cyclic voltammetry apparatus (Model CV-2, from BAS, West Lafayette, 1N).

various tumor cells = test: IR-induced apoptosis of tumor cells; type: cell-based
[4] = system: leukemia cells (U937, Jurkat, SupT13 and A20), solid tumor cells (HT1080); test: MTT cell viability, leukemia and solid tumor cell panel; type: cell-based; conditions: 48 hours
Text: The results, shown in FIG. 7A and FIG. 7B, are expressed as a percent of vehicle control and presented as means±SEM (n=3).

[5] = target: phospholipase C (Type XI from B. cereus) (Bacillus cereus, UniProt P09598); type: biochemical; conditions: 2 hrs at 37° C., pNPP 40 mM
phospholipase C (Type XI from B. cereus), sequence (P09598 39-283 limits assumed): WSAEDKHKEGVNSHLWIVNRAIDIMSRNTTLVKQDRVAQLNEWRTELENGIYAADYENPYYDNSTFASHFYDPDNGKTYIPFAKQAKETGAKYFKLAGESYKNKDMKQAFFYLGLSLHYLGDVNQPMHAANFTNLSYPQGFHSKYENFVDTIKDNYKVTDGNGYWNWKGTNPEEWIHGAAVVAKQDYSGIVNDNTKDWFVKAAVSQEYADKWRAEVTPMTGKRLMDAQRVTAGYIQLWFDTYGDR
Method: (§1) In this study, p-nitrophenyl-phosphorylcholine (pNPP, 40 mM) was incubated with 2 U/ml phospholipase C (Type XI from B. cereus) in the presence or absence of various concentrations of inhibitors for 2 hrs at 37° C. The amount of the cleaved substrate pNPP was quantified by determination of the optical density at 410 nm using an ELISA reader. The results are expressed as percent of vehicle control and presented as means±SEM (n=3) (FIG. 9A). NBD-C6-ceramide and PC were incubated with U937 cell lysates containing 50 μg protein in the presence or absence of various concentrations of inhibitors for 30 min at 30° C. The formation of NBD-C6-sphingomyelin as analyzed by TLC and quantified by determination of the fluorescent intensity of NBD-C6-sphingomyelin using a phosphorimager. The results are expressed as percent of vehicle control (FIG. 9B). U937 cells were incubated with different concentrations of inhibitors for 48 hours.

[6] = system: sphingomyelin synthase (SMS); test: SMS activity in U937 cell lysates with inhibitor added (cell lysate-based in vitro assay); type: biochemical, Human; conditions: 30 min at 30° C.
Method: as §1

[7] = system: ceramide and DAG levels in U937 cells; test: Ceramide and DAG levels in U937 cells by DAG kinase assay; type: cell-based, Human; conditions: 2 hrs
Method: To validate if inhibition of SMS may mediate D609-induced tumor cell death, the cellular level of SMS activity in U937 cells treated with vehicle or D609 were studied. […] NBD-C6-ceramide and PC were incubated with the cell lysates containing 50 μg proteins for 30 min at 30° C. The formation of NBD-C6-sphingomyelin was analyzed by TLC and quantified by determination of the fluorescent intensity of NBD-C6-sphingomyelin using a phosphoimager. The results, shown in FIGS. 10B-10D, are expressed as percent of the control cultures with vehicle and presented as means±SEM (n=3). […] The levels of ceramide (FIG. 10B) and DAG (FIG. 10C) were analyzed by the DAG kinase assay, normalized to the levels of cellular phospholipid and expressed as pmole/nmole phophate (pi) or the ratio of ceramide and DAG (FIG. 10D). The results represent means±SEM (n=3).

A20 lymphoma = conditions: 50 mg/kg i.v., alone or with 6.0 Gy irradiation
Method: A20 lymphoma was induced in normal BALB/c male mice by the tail vein injection of 5×10^5 cultured A20 cells. Two days later, the mice were assigned to groups of 10 mice each and received i.v. 1) saline, 2) 50 mg/kg D609, 3) saline plus 6.0 Gy irradiation or 4) D609 plus irradiation. Total body irradiation was given 10 min after D609 injection. Survival of each mouse was then followed by daily monitoring and weighing (5×/week).

A20 cells = test: MTT cell viability and growth, A20 cells
Method: The cell viability was analyzed by MTT assay after A20 cells were cultured with vehicle or different concentrations of D609 for 48 hrs. […] A20 cells were untreated (Control), irradiated (IR 4 Gy), incubated with D609 alone, or treated with both D609 and IR. The cell viability and/or proliferation were measured by MTT assay at different times after the cells were placed into well of 96-well plate (2×10^4/0.2 ml/well). The results are expressed as means±SEM (n=3) (FIG. 13B).

[8] = 300 μM, 0.1 unit/ml PLE, 37° C., pH 7.4

Which LD50 (U937 cells) does the source give for CCCC(=O)OCSC(=S)OC1CC2CC1C1CCCC21 (stereo not drawn) [Prodrug 2, S-methyleneoxybutyryl D609] here?
Its LD50 is 56.6 µM.

And the T1/2 [1, 8]?
Its T1/2 is 10.61 min.

And the kobs [1, 8]?
The kobs was 0.06532 min⁻¹.

And the “% D609 (molar recovery of D609)” value ([1]; complete hydrolysis by esterase)?
The value was 93%.

And the T1/2 [2]?
The T1/2 was 0.126 min.

Which E1/2 [3] does the source give for S=C([S-])OC1CC2CC1C1CCCC21.[K+] (stereo not drawn) [Prodrug D609, Tricyclodecan-9-yl-xanthogenate] here?
Its E1/2 is 350 mV.

And the “protection of tumor cells from IR-induced apoptosis” value (various tumor cells)?
The value was “failed to protect them from IR-induced apoptosis”.

And the cell viability [4]?
The cell viability was “dose-dependent reduction in cell viability”.

What about the LD50 (U937 cells) of the same compound?
Its LD50 is 117 µM.

What about the “U937 cell death / cell viability” value (U937 cells; 48 hours) of the same compound?
Its value is “induced significant cell death”.

And the “inhibition of PC-PLC activity” value [5]?
Its value is “dose-dependently inhibited”.

And the “inhibition of SMS activity” value [6]?
The value was “inhibited the SMS activity in a dose-dependent manner”.

And the “level of DAG” value [7]?
Its value is “decrease in that of DAG”.

And the level of ceramide [7]?
The level of ceramide was “increase in the level of ceramide”.

And the “ratio between ceramide and DAG” value [7]?
Its value is “dramatically elevated”.

What about the therapeutic response (A20 lymphoma) of the same compound?
The therapeutic response was “no significant therapeutic response”.

And the LD50 (A20 cells; 48 hrs)?
The LD50 was “about 106 μM and ~28.2 μg/ml”.

What about the “response of A20 cells to IR” value (A20 cells; IR 4 Gy) of the same compound?
Its value is “enhanced their response to IR”.
